Measured values reported in patent US11684067B2, “Generation of peroxyformic acid through polyhydric alcohol formate” (priority 2014, dated 2023).
Read-outs that look alike come from different tables or passages of the source.

Key:
[1] = test system: Various pathogens; type: cell-based
[2] = cited from earlier work
[3] = test system: P. aeruginosa ATCC 15442 biofilm; assay: Biofilm disinfectant efficacy, CDC Biofilm Reactor, Single Tube Method (ASTM E2562-12, E2871-12); type: cell-based, Pseudomonas aeruginosa
Procedure: P. aeruginosa ATCC 15442 biofilm was grown on the surface of 24 polycarbonate coupons following ASTM method E2562-12: Standard Test Method for Quantification of Pseudomonas aeruginosa Biofilm Grown with High Shear and Continuous Flow using CDC Biofilm Reactor. After 48 hours of biofilm establishment, the coupons were removed from the reactor and placed into individual centrifuge tubes. Three coupons per test substance were tested for disinfectant efficacy using ASTM method E2871-12: Standard Test Method for Evaluating Disinfectant Efficacy against Pseudomonas aeruginosa Biofilm Grown in CDC Biofilm Reactor using Single Tube Method. Each coupon was exposed to 4 mL of chemistry for an exposure time of 3 hours. […] This was followed with a series of vortexing and sonicating steps to remove any biofilm from the coupon surface into the solution for plating and enumeration.
P. aeruginosa ATCC 15442 biofilm was grown on the surface of 24 polycarbonate coupons following ASTM method E2562-12: Standard Test Method for Quantification of Pseudomonas aeruginosa Biofilm Grown with High Shear and Continuous Flow using CDC Biofilm Reactor. After 48 hours of biofilm establishment, the coupons were removed from the reactor and placed into individual centrifuge tubes. […]

[4] = test system: Pseudomonas aeruginosa ATCC 15442; assay: Bactericidal activity of ester PFA versus POAA, EN 1276, dirty conditions; type: cell-based; conditions: 20°C
From the text: (§1) Additional Staphylococcus, Enterococcus and Pseudomonas pathogens were used to evaluate the micro efficacy of ester PFA generated according to methods of the present invention in comparison to POAA.

[5] = test system: Enterococcus hirae ATCC 10541; assay: as above; type: cell-based; conditions: 20°C
From the text: as §1

[6] = test system: Staphylococcus aureus ATCC 6538; assay: as above; type: cell-based; conditions: 20°C
From the text: as §1

[7] = test system: Aspergillus brasiliensis ATCC 16404; assay: Fungicidal/yeasticidal activity of ester PFA versus POAA (Example 22); type: cell-based; conditions: for Average CFU/mL / Log10 Growth / Log10 Reduction: 20°C, dirty
From the text: (§2) Canidia and Aspergillus pathogens were used to evaluate the micro efficacy of ester PFA generated according to methods of the present invention in comparison to POAA.

[8] = test system: Candida albicans ATCC 10231; assay: as above; type: cell-based; conditions: for Average CFU/mL / Log10 Growth / Log10 Reduction: 20°C, dirty
From the text: as §2

[9] = test system: Bacillus subitilisATCC 19659; assay: Sporicidal activity of ester PFA versus POAA (Example 21); type: cell-based, Bacillus subtilis; conditions: for Average CFU/mL / Log10 Growth / Log10 Reduction: 20°C, dirty
From the text: Bacillus pathogens were used to evaluate the micro efficacy of ester PFA generated according to methods of the present invention in comparison to POAA.

[10] = Laundry disinfection efficacy, EPA protocol on 100% cotton carriers (Table 38); type: cell-based; conditions: pH 7.7, 500 ppm hard water; for Log survivors (CFU/carrier) / Log reduction: 18 ppm, 40° C., 5 minute exposure; for Log survivors (CFU/carrier): cotton carriers; for Log reduction: vs water control
Procedure: The microbial efficacy of peroxyformic acid was also tested following the EPA protocol on 100% cotton carriers against a water control. The test conditions were pH 7.7, 500 ppm hard water, 40° C. and 5 minute exposure time. In comparison, the performance of peracetic acid was also tested under the same conditions.

[11] = 20 ppm PFA pH 6.61 / 24.8 ppm POAA pH 6.73, 5 minutes
[12] = 30 ppm PFA pH 6.74 / 37.6 ppm POAA pH 6.90, 5 minutes
[13] = 50 ppm PFA pH 6.60 / 62.4 ppm POAA pH 6.98, 5 minutes
[14] = 200 ppm PFA pH 6.15 / 245 ppm POAA pH 6.56, 5 minutes
[15] = 200 ppm PFA pH 6.15 / 245 ppm POAA pH 6.56, 10 minutes
[16] = 200 ppm PFA pH 6.15 / 245 ppm POAA pH 6.56, 15 minutes
[17] = 300 ppm PFA pH 6.21 / 368 ppm POAA pH 6.63, 5 minutes
[18] = 300 ppm PFA pH 6.21 / 368 ppm POAA pH 6.63, 10 minutes
[19] = 300 ppm PFA pH 6.84 / 368 ppm POAA pH 6.73 (molar equivalent), 5 minutes
[20] = 300 ppm PFA pH 6.84 / 368 ppm POAA pH 6.73 (molar equivalent), 10 minutes
[21] = 400 ppm PFA pH 7.19 / 490 ppm POAA pH 6.78 (molar equivalent), 5 minutes
[22] = 400 ppm PFA pH 7.19 / 490 ppm POAA pH 6.78 (molar equivalent), 10 minutes
[23] = Klebsiella pneumoniae ATCC 4352
[24] = Staphylococcus aureus ATCC 6538

In the case of `O=COO` [PFA, peroxyformic acid], the Result ([1]; EN 13624, 450 ppm PFA pH 6-7, Aspergillus brasiliensis ATCC 1604, passing requirement 4 log reduction) is reported as “PASS”, the Result ([1]; EN 13624, 450 ppm PFA pH 6-7, Canidia albicans ATCC 10231, passing requirement 4 log reduction) is reported as “PASS” and the Result ([1]; EN 13704, 450 ppm PFA pH 6-7, Bacillus subtilis ATCC 6633, passing requirement 3 log reduction) is reported as “PASS”. The Result ([1]; EN 13727, 450 ppm PFA pH 6-7, Enterococcus hirae ATCC 10541, passing requirement 5 log reduction) was “PASS”, the Result ([1]; EN 13727, 450 ppm PFA pH 6-7, P. aeruginosa ATCC 15442, passing requirement 5 log reduction) was “PASS” and the Result ([1]; EN 13727, 450 ppm PFA pH 6-7, Staph Aureus ATCC 6538, passing requirement 5 log reduction) was “PASS”. The Result ([1]; pH 6) was “PASS”, the pKa value [2] was 7.2 and the “anti-biofilm efficacy compared with POAA” value ([3]; 50 ppm PFA 15 minutes to 3 hours vs 200 ppm POAA 3 hours, FIG. 12) was “greater anti-biofilm efficacy”. For the same molecule, the “anti-biofilm efficacy compared with POAA” value ([3]; 3 hours exposure, concentration lower than POAA, FIG. 11) was “significantly greater anti-biofilm efficacy”, the “Average CFU/mL” value [4, 11] was less than 140 CFU/mL and the “Log10 Growth” value [4, 11] was less than 2.15 Log10. For the same molecule, the “Average CFU/mL” value [4, 12] was less than 140 CFU/mL, the “Log10 Growth” value [4, 12] was less than 2.15 Log10 and the “Average CFU/mL” value [4, 13] was less than 140 CFU/mL. For the same molecule, the “Log10 Growth” value [4, 13] was less than 2.15 Log10, the “Average CFU/mL” value [5, 11] was 6.30E + 03 CFU/mL and the “Log10 Growth” value [5, 11] was 3.80 Log10. For the same molecule, the “Average CFU/mL” value [5, 12] was 2.15E + 02 CFU/mL, the “Log10 Growth” value [5, 12] was 2.33 Log10 and the “Average CFU/mL” value [5, 13] was less than 140 CFU/mL. The “Log10 Growth” value [5, 13] was less than 2.15 Log10, the “Average CFU/mL” value [6, 11] was less than 140 CFU/mL and the “Log10 Growth” value [6, 11] was less than 2.15 Log10. For the same molecule, the “Average CFU/mL” value [6, 12] was less than 140 CFU/mL, the “Log10 Growth” value [6, 12] was less than 2.15 Log10 and the “Average CFU/mL” value [6, 13] was less than 140 CFU/mL. For the same molecule, the “Log10 Growth” value [6, 13] was less than 2.15 Log10, the “reduction in A. brasiliensis conidio spores compared with POAA” value ([7]; 5, 10 and 15 minutes, lower actives, FIG. 19) was “improved reduction” and the “Average CFU/mL” value [7, 14] was 1.60E+04 CFU/mL. For the same molecule, the “Log10 Growth” value [7, 14] was 4.20 Log10, the “Log10 Reduction” value [7, 14] was 1.54 Log10 and the “Average CFU/mL” value [7, 15] was 1.75E+03 CFU/mL. The “Log10 Growth” value [7, 15] was 3.24 Log10, the “Log10 Reduction” value [7, 15] was 2.50 Log10 and the “Average CFU/mL” value [7, 16] was 3.85E+02 CFU/mL. The “Log10 Growth” value [7, 16] was 2.59 Log10, the “Log10 Reduction” value [7, 16] was 3.16 Log10 and the “Average CFU/mL” value [7, 17] was 4.10E+02 CFU/mL. The “Log10 Growth” value [7, 17] was 2.61 Log10, the “Log10 Reduction” value [7, 17] was 3.13 Log10 and the “Average CFU/mL” value [7, 18] was 1.20E+02 CFU/mL. For the same molecule, the “Log10 Growth” value [7, 18] was 2.08 Log10, the “Log10 Reduction” value [7, 18] was 3.67 Log10 and the “reduction in C. albicans compared with POAA” value ([8]; 5, 10 and 15 minutes, lower actives, FIG. 18) was “equivalent reduction”. For the same molecule, the “Average CFU/mL” value [8, 14] was less than 140 CFU/mL, the “Log10 Growth” value [8, 14] was less than 2.15 Log10 and the “Log10 Reduction” value [8, 14] was greater than 4.14 Log10. For the same molecule, the “Average CFU/mL” value [8, 15] was less than 140 CFU/mL, the “Log10 Growth” value [8, 15] was less than 2.15 Log10 and the “Log10 Reduction” value [8, 15] was greater than 4.14 Log10. For the same molecule, the “Average CFU/mL” value [8, 16] was less than 140 CFU/mL, the “Log10 Growth” value [8, 16] was less than 2.15 Log10 and the “Log10 Reduction” value [8, 16] was greater than 4.14 Log10. The “Average CFU/mL” value [8, 17] was less than 140 CFU/mL, the “Log10 Growth” value [8, 17] was less than 2.15 Log10 and the “Log10 Reduction” value [8, 17] was greater than 4.14 Log10. For the same molecule, the “Average CFU/mL” value [8, 18] was less than 140 CFU/mL, the “Log10 Growth” value [8, 18] was less than 2.15 Log10 and the “Log10 Reduction” value [8, 18] was greater than 4.14 Log10. The “reduction in B. subtillis spores compared with POAA” value ([9]; 5 and 10 minutes, lower concentrations than POAA, FIG. 17) was “increased reduction”, the “Average CFU/mL” value [9, 19] was 3.25E+03 CFU/mL and the “Log10 Growth” value [9, 19] was 3.51 Log10. For the same molecule, the “Log10 Reduction” value [9, 19] was 2.28 Log10, the “Average CFU/mL” value [9, 20] was 4.50E+01 CFU/mL and the “Log10 Growth” value [9, 20] was 1.65 Log10. For the same molecule, the “Log10 Reduction” value [9, 20] was 4.14 Log10, the “Average CFU/mL” value [9, 21] was 3.45E+03 CFU/mL and the “Log10 Growth” value [9, 21] was 3.54 Log10. The “Log10 Reduction” value [9, 21] was 2.26 Log10, the “Average CFU/mL” value [9, 22] was 1.30E+03 CFU/mL and the “Log10 Growth” value [9, 22] was 3.11 Log10. For the same molecule, the “Log10 Reduction” value [9, 22] was 2.68 Log10, the “Log survivors (CFU/carrier)” value [10, 23] was less than 1.00 log10 CFU/carrier and the Log reduction [10, 23] was greater than 5.12. The “Log survivors (CFU/carrier)” value [10, 24] was 1.63 log10 CFU/carrier, the Log reduction [10, 24] was 5.22 and the “kill compared with peracetic acid” value ([10]; 40°C, 5 minute, less than half of the dose of peracetic acid) was “significant better kill than peracetic acid”.
